pIC50: −log10 of the molar value.
Assays:
[1] = molecular target: hGYS2 enzyme (recombinant hGYS2/GN1 protein) (Homo sapiens (Human), UniProt P54840); experiment: GYS2 coupled enzyme assay (PK/LDH); assay type: biochemical; details: geometric mean of at least 2 assay runs on separate days, read-out: Avg_IC50
Outline: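 Continuous PK/LDH-coupled readout of NADH loss at 340 nm over 10 min, with 200 nM hGYS2/GN1 and 2 mM each of UDP-glucose, glucose-6-phosphate and PEP, in 50 mM Tris pH 7.5 with 0.2% glycogen and 2.5% DMSO. Slopes were normalized to controls and IC50s fit to a Hill curve from duplicates.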

[2] = molecular target: hGYS1 enzyme (recombinant hGYS1/GN1 protein) (Homo sapiens (Human), UniProt P13807); experiment: GYS1 coupled enzyme assay (PK/LDH); assay type: biochemical; details: hGYS1/GN1 50 nM, UDP-Glucose 0.8 mM, G6P 1 mM; geometric mean of at least 2 runs
Chain of hGYS1 enzyme (recombinant hGYS1/GN1 protein) (P13807 whole entry): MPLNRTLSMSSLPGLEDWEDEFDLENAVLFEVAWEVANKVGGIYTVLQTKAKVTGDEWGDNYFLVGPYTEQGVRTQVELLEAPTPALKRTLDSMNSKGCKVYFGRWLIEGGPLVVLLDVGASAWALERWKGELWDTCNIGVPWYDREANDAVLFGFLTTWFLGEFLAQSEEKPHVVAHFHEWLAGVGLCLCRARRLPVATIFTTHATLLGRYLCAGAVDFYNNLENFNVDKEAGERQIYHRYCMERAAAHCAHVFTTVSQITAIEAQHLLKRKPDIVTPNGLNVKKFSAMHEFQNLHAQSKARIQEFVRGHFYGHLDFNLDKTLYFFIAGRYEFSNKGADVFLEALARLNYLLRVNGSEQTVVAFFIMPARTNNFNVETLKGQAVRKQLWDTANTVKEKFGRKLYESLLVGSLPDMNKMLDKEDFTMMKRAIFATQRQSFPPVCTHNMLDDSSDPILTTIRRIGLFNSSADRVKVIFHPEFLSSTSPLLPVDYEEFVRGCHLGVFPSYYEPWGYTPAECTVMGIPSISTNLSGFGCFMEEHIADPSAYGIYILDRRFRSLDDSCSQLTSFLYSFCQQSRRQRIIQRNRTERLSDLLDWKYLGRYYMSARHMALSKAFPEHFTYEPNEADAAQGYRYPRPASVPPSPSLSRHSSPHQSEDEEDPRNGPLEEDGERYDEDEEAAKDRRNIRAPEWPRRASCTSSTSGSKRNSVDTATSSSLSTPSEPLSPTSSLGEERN
Chain of hGYS1 enzyme (recombinant hGYS1/GN1 protein) (P46976 whole entry partner): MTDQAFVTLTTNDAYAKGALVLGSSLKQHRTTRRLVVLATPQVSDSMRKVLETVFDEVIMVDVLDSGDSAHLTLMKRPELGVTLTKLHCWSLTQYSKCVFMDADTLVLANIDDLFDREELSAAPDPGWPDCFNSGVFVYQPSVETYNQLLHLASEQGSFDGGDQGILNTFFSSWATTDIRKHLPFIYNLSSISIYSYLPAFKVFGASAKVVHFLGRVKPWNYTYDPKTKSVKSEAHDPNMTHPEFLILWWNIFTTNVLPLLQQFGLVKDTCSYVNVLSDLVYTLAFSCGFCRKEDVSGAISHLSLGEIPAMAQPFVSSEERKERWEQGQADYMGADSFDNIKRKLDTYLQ

Chain of hGYS2 enzyme (recombinant hGYS2/GN1 protein) (P54840 whole entry): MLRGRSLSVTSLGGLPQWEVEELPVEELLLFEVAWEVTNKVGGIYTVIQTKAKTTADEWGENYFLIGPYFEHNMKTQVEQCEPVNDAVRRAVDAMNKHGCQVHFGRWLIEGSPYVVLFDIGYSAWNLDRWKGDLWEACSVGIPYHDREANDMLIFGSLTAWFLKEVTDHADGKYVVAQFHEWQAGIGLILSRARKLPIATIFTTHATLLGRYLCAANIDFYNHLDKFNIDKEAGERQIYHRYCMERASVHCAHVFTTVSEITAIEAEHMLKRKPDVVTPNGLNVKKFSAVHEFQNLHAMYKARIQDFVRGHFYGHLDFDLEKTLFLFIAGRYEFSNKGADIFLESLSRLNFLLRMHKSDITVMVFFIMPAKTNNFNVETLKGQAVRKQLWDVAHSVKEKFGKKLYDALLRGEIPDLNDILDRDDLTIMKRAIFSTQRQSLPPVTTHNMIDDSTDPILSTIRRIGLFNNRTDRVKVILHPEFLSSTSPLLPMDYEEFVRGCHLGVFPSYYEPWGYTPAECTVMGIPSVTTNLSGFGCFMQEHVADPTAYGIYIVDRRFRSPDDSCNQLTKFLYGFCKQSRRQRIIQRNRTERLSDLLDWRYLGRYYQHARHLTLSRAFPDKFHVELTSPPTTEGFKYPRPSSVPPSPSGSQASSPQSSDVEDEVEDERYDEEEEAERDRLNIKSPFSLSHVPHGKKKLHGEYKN
Chain of hGYS2 enzyme (recombinant hGYS2/GN1 protein) (P46976 whole entry partner): as the sequence (P46976 whole entry partner) above

| pIC50 [1] | pIC50 [2] | Structure (SMILES) |
| --- | --- | --- |
| < 4.00 | 7.64 | Cc1cc(C)n(CC(=O)N2C[C@H](F)C[C@H]2C(=O)N[C@@H](c2ccccc2)c2ccc(C(C)C)cc2)n1 [Compound 125, (2S,4R)-1-[2-(3,5-dimethyl-1H-pyrazol-1-yl)acetyl]-4-fluoro-N-[(S)-phenyl[4-(propan-2-yl)phenyl]methyl]pyrrolidine-2-carboxamide] |
| < 4.00 | 7.25 | CC(C)c1ccc([C@@H](NC(=O)[C@@H]2C[C@@H](F)CN2C(=O)Cn2ccc3c(F)cccc32)c2ccccc2)cc1 [Compound 128, (2S,4R)-4-fluoro-1-[2-(4-fluoro-1H-indol-1-yl)acetyl]-N-[(S)-phenyl[4-(propan-2-yl)phenyl]methyl]pyrrolidine-2-carboxamide] |
| < 4.00 | 6.66 | CC(C)c1ccc([C@@H](NC(=O)[C@@H]2C[C@@H](F)CN2C(=O)CS(=O)(=O)N2CCCC2)c2ccccc2)cc1 [Compound 129, (2S,4R)-4-fluoro-N-[(S)-phenyl[4-(propan-2-yl)phenyl]methyl]-1-[2-(pyrrolidine-1-sulfonyl)acety]pyrrolidine-2-carboxamide] |
| < 4.00 | 8.15 | CC(C)c1ccc([C@@H](NC(=O)[C@@H]2C[C@@H](F)CN2C(=O)Cc2cccc3ncccc23)c2ccccc2)cc1 [Compound 130, (2S,4R)-4-fluoro-N-[(S)-phenyl[4-(propan-2-yl)phenyl]methyl]-1-[2-(quinolin-5-yl)acetyl]pyrrolidine-2-carboxamide] |
| < 4.00 | 8.00 | COc1ccc(CC(=O)N2C[C@H](F)C[C@H]2C(=O)N[C@@H](c2ccccc2)c2ccc(C(C)C)cc2)c(C#N)c1 [Compound 133, (2S,4R)-1-[2-(2-cyano-4-methoxyphenyl)acetyl]-4-fluoro-N-[(S)-phenyl[4-(propan-2-yl)phenyl]methyl]pyrrolidine-2-carboxamide] |
| < 4.00 | 7.39 | CC(C)c1ccc([C@@H](NC(=O)[C@@H]2C[C@@H](F)CN2C(=O)CCc2cnc3[nH]ccc3c2)c2ccccc2)cc1 [Compound 134, (2S,4R)-4-fluoro-N-[(S)-phenyl[4-(propan-2-yl)phenyl]methyl]-1-(3-{1H-pyrrolo[2,3-b]pyridin-5-yl}propanoyl)pyrrolidine-2-carboxamide] |
| < 4.00 | 7.36 | COc1cccnc1CCC(=O)N1C[C@H](F)C[C@H]1C(=O)N[C@@H](c1ccccc1)c1ccc(C(C)C)cc1 [Compound 135, (2S,4R)-4-fluoro-1-[3-(3-methoxypyridin-2-yl)propanoyl]-N-[(S)-phenyl[4-(propan-2-yl)phenyl]methyl]pyrrolidine-2-carboxamide] |
| < 4.00 | 7.77 | CC(C)c1ccc([C@@H](NC(=O)[C@@H]2C[C@@H](F)CN2C(=O)Cc2cc3ccccc3n2C)c2ccccc2)cc1 [Compound 137, (2S,4R)-4-fluoro-1-[2-(1-methyl-1H-indol-2-yl)acetyl]-N-[(S)-phenyl[4-(propan-2-yl)phenyl]methyl]pyrrolidine-2-carboxamide] |
| < 4.00 | 7.17 | CC(=O)N1CC[C@@H](C(=O)N2C[C@H](F)C[C@H]2C(=O)N[C@@H](c2ccccc2)c2ccc(C(C)C)cc2)[C@@H]1c1cccnc1 [Compound 140, (2S,4R)-1-[(2R,3R)-1-acetyl-2-(pyridin-3-yl)pyrrolidine-3-carbonyl]-4-fluoro-N-[(S)-phenyl[4-(propan-2-yl)phenyl]methyl]pyrrolidine-2-carboxamide] |
| < 4.00 | 6.74 | CC(=O)N1CCOC(C(=O)N2C[C@H](F)C[C@H]2C(=O)N[C@@H](c2ccccc2)c2ccc(C(C)C)cc2)C1 (stereo partly drawn) [Compound 141, (2S,4R)-1-(4-acetylmorpholine-2-carbonyl)-4-fluoro-N-[(S)-phenyl[4-(propan-2-yl)phenyl]methyl]pyrrolidine-2-carboxamide] |
| < 4.00 | 7.11 | CC(=O)N(C)CC(=O)N1C[C@H](F)C[C@H]1C(=O)N[C@@H](c1ccccc1)c1ccc(C(C)C)cc1 [Compound 142, (2S,4R)-4-fluoro-1-[2-(N-methylacetamido)acetyl]-N-[(S)-phenyl[4-(propan-2-yl)phenyl]methyl]pyrrolidine-2-carboxamide] |
| < 4.00 | 6.77 | CC(=O)N1CCC(C(=O)N2C[C@H](F)C[C@H]2C(=O)N[C@@H](c2ccccc2)c2ccc(C(C)C)cc2)CC1 [Compound 144, (2S,4R)-1-(1-acetylpiperidine-4-carbonyl)-4-fluoro-N-[(S)-phenyl[4-(propan-2-yl)phenyl]methyl]pyrrolidine-2-carboxamide] |
| < 4.00 | 6.69 | CC(=O)N1CC(C)(C(=O)N2C[C@H](F)C[C@H]2C(=O)N[C@@H](c2ccccc2)c2ccc(C(C)C)cc2)C1 [Compound 146, (2S,4R)-1-(1-acetyl-3-methylazetidine-3-carbonyl)-4-fluoro-N-[(S)-phenyl[4-(propan-2-yl)phenyl]methyl]pyrrolidine-2-carboxamide] |
| < 4.00 | 6.90 | CC(=O)N1CCC(C(=O)N2C[C@H](F)C[C@H]2C(=O)N[C@@H](c2ccccc2)c2ccc(C(C)C)cc2)C1 (stereo partly drawn) [Compound 147, (2S,4R)-1-(1-acetylpyrrolidine-3-carbonyl)-4-fluoro-N-[(S)-phenyl[4-(propan-2-yl)phenyl]methyl]pyrrolidine-2-carboxamide] |
| < 4.00 | 6.62 | CC(=O)N1CC2(CC(C(=O)N3C[C@H](F)C[C@H]3C(=O)N[C@@H](c3ccccc3)c3ccc(C(C)C)cc3)=NO2)C1 [Compound 151, (2S,4R)-1-{2-acetyl-5-oxa-2,6-diazaspiro[3.4]oct-6-ene-7-carbonyl}-4-fluoro-N-[(S)-phenyl[4-(propan-2-yl)phenyl]methyl]pyrrolidine-2-carboxamide] |
| < 4.00 | 6.55 | CC(=O)N1CC(C)(CC(=O)N2C[C@H](F)C[C@H]2C(=O)N[C@@H](c2ccccc2)c2ccc(C(C)C)cc2)C1 [Compound 154, (2S,4R)-1-[2-(1-acetyl-3-methylazetidin-3-yl)acetyl]-4-fluoro-N-[(S)-phenyl[4-(propan-2-yl)phenyl]methyl]pyrrolidine-2-carboxamide] |
| < 4.00 | 6.69 | CC(=O)N1CCC[C@@H]1CC(=O)N1C[C@H](F)C[C@H]1C(=O)N[C@@H](c1ccccc1)c1ccc(C(C)C)cc1 [Compound 155, (2S,4R)-1-{2-[(2R)-1-acetylpyrrolidin-2-yl]acetyl}-4-fluoro-N-[(S)-phenyl[4-(propan-2-yl)phenyl]methyl]pyrrolidine-2-carboxamide] |
| < 4.00 | 7.15 | CC(=O)N1CCCO[C@@H](C(=O)N2C[C@H](F)C[C@H]2C(=O)N[C@@H](c2ccccc2)c2ccc(C(C)C)cc2)C1 [Compound 158, (2S,4R)-1-[(2R)-4-acetyl-1,4-oxazepane-2-carbonyl]-4-fluoro-N-[(S)-phenyl[4-(propan-2-yl)phenyl]methyl]pyrrolidine-2-carboxamide] |
| < 4.00 | 7.16 | CC(=O)N1CCN(CC(=O)N2C[C@H](F)C[C@H]2C(=O)N[C@@H](c2ccccc2)c2ccc(C(C)C)cc2)C(=O)C1 [Compound 160, (2S,4R)-1-[2-(4-acetyl-2-oxopiperazin-1-yl)acetyl]-4-fluoro-N-[(S)-phenyl[4-(propan-2-yl)phenyl]methyl]pyrrolidine-2-carboxamide] |
| < 4.00 | 6.87 | CC(=O)N1C[C@H]2C[C@H](C(=O)N3C[C@H](F)C[C@H]3C(=O)N[C@@H](c3ccccc3)c3ccc(C(C)C)cc3)O[C@H]2C1 [Compound 162, (2S,4R)-1-[(2R,3aR,6aR)-5-acetyl-hexahydro-2H-furo[2,3-c]pyrrole-2-carbonyl]-4-fluoro-N-[(S)-phenyl[4-(propan-2-yl)phenyl]methyl]pyrrolidine-2-carboxamide] |
| < 4.00 | 6.87 | CC(=O)N1CC2(CCC(C(=O)N3C[C@H](F)C[C@H]3C(=O)N[C@@H](c3ccccc3)c3ccc(C(C)C)cc3)O2)C1 (stereo partly drawn) [Compound 163, (2S,4R)-1-{2-acetyl-5-oxa-2-azaspiro[3.4]octane-6-carbonyl}-4-fluoro-N-[(S)-phenyl[4-(propan-2-yl)phenyl]methyl]pyrrolidine-2-carboxamide] |
| < 4.00 | 7.04 | CC(=O)N1CCCC(C(=O)N2C[C@H](F)C[C@H]2C(=O)N[C@@H](c2ccccc2)c2ccc(C(C)C)cc2)CC1 (stereo partly drawn) [Compound 169, (2S,4R)-1-(1-acetylazepane-4-carbonyl)-4-fluoro-N-[(S)-phenyl[4-(propan-2-yl)phenyl]methyl]pyrrolidine-2-carboxamide] |
| < 4.00 | 7.01 | CC(=O)N1CCC[C@@H](CC(=O)N2C[C@H](F)C[C@H]2C(=O)N[C@@H](c2ccccc2)c2ccc(C(C)C)cc2)C1 [Compound 171, (2S,4R)-1-{2-[(3S)-1-acetylpiperidin-3-yl]acetyl}-4-fluoro-N-[(S)-phenyl[4-(propan-2-yl)phenyl]methyl]pyrrolidine-2-carboxamide] |
| < 4.00 | 6.59 | CC(=O)N1CCCC1CCC(=O)N1C[C@H](F)C[C@H]1C(=O)N[C@@H](c1ccccc1)c1ccc(C(C)C)cc1 (stereo partly drawn) [Compound 172, (2S,4R)-1-[3-(1-acetylpyrrolidin-2-yl)propanoyl]-4-fluoro-N-[(S)-phenyl[4-(propan-2-yl)phenyl]methyl]pyrrolidine-2-carboxamide] |
| < 4.00 | 6.75 | CC(=O)N1CCC2(CC1)CC2C(=O)N1C[C@H](F)C[C@H]1C(=O)N[C@@H](c1ccccc1)c1ccc(C(C)C)cc1 (stereo partly drawn) [Compound 174, (2S,4R)-1-{6-acetyl-6-azaspiro[2.5]octane-1-carbonyl}-4-fluoro-N-[(S)-phenyl[4-(propan-2-yl)phenyl]methyl]pyrrolidine-2-carboxamide] |
